Here are results for nine compounds from patent US8163901B2, “Amide derivatives as ion-channel ligands and pharmaceutical compositions and methods of using the same” (Evotec AG, priority 2008, dated 2012).

Holding throughout (type): cell-based
For assay [1], the target named is T1, hVR1 (Homo sapiens, UniProt Q8NER1).
T1 construct: R710-07 (T-REx host cell line); host or cells: T-REx System cell line, called 'human keratinocyte cell line' and 'HEK 293 cells'
The experiment in a line: Calcium uptake assay (FLIPR), inhibition of capsaicin-induced calcium influx. As for the experimental part:
(§1) Functional activity of compounds against the VR1 receptor was determined by measuring changes in intracellular calcium in HEK 293 cells expressing hVR1. Compounds were examined for their ability to inhibit agonist-induced calcium influx. Relative levels of [Ca^2+] were monitored in a 96-well format using a calcium-sensitive fluorescence dye and a FLIPR TETRA, Molecular Devices.
(§2) Cells that express high levels of VR1 were obtained by generation of a cell line from human keratinocytes with heterologous expression of VR1 under control of an inducible promoter. Specifically, cells expressing human VR1 under the control of the human cytomegalovirus immediate-early (CMV) promoter and two tetracycline operator 2 (TetO2) sites were made using the T-REx System (Invitrogen, Carlsbad, Calif., USA). Details and methods concerning this system are published (Hum. Gene Ther. 9, pp. 1939-1950, 1998; Annu. Rev. Microbiol. 48, pp. 345-369, 1994; Mol. Biol. 169, pp. 707-'721, 1983). Human VR1 was subcloned into the T-REx System pcDNA5/TO vector (Invitrogen Cat# V1033-20) which was transfected into the T-REx System human keratinocyte cell line (Invitrogen Cat# R710-07) from which a stable cell line was established which expresses VR1 after induction by exposure to tetracycline or doxycycline (Hum. Gene Ther. 9, pp. 1939-1950, 1998; instructions that come with purchase of products noted above). Cells were maintained in a CO2 incubator (5% CO2) at 37° C. in culture medium containing DMEM with phenol red (Mediatech Cat #: 15-017-CV) supplemented with 10% heat-inactivated Fetal Bovine Serum, 5% Penicillin-streptomycin (Mediatech Cat #: 30-002-CI), 5% Glutamax® (L-Alanyl-L-Glutamine, Mediatech Cat #: 25-015-CI), 200 μg/ml hygromycin (Mediatech #:30-240-CR), 0.5 μg/ml blasticidin (Invitrogen #46-1120)).
(§3) For assay preparation, cells expressing human VR1 as described above were plated in 96-well plates (Becton Dickinson [BD] poly-D-lysine coated 96-well plates, cat #356692) at 55,000 cells per well in culture media (described above) that also contained 1 ug/ml doxycycline. Plated cells were then placed in an incubator (5% CO2) and incubated for 20-26 hours at 37° C., until the cells had grown to near confluency. Media was then aspirated from cells and 50 uL of dye-containing buffer (from Molecular Devices FLIPR Calcium 4 Assay kit, cat# R8141) was added to each well. Cells were then left in the dark at room temperature for 1.5-2 hours. Cell plates were then placed in the FLIPR TETRA (Molecular Devices, CA, USA). Test compounds and agonists were added to wells using the liquid handling capability of the FLIPR TETRA. Calcium responses of the cells were monitored by fluorescence readout of dye signal. Test compounds in saline (130 mM NaCl, 17 g/L sucrose, 1.8 g/L glucose, 8.8 mM HEPES, 3 mM KCl, 0.60 mM MgCl, 1.0 mM CaCl2; adjust to pH 7.4 using NaOH; 0.03% BSA added on the day of the experiment), or vehicle control in saline, were pre-incubated at the desired final concentrations in the dark at room temperature for 2 or 30 minutes with cells already containing the above mentioned dye buffer (dye solution was diluted 1:1 in culture wells with saline containing 2× the final concentration of test compound). […] Another agonist was protons via a low pH solution (saline solution described above plus 10 mM citric acid buffered to pH 5.7 with HCl instead of buffering to a neutral pH with NaOH as done for normal saline). Compounds were tested at various concentration ranges, depending upon potency of compound. After the 2 minute or 30 minute compound pre-treatment, treatment solution was then added to cells by adding a volume of treatment solution equal to the pretreatment solution already on the cells.

In assay [2] the target is T1, hVR1. Nature of the assay: Calcium uptake assay (FLIPR), inhibition of low pH (proton)-induced calcium influx. The note with it: agonist protons, low pH solution pH 5.7; cells expressing hVR1. As for the experimental part: as §1, §2
as §3, with “compound). Compound IC50 experiments were run using an agonist concentration at or near the EC50 of the agonist.” for “compound).”, “cells. […]” for “cells.”

In assay [3] the target is T1, hVR1. The experiment in a line: Determination of pA2 values against capsaicin stimulation (Ca2+ imaging, Schild analysis). Here is the method:
Changes in the fluorescence signal (λex=470-495 nm, λem=515-575 nm) are monitored throughout the experiment before agonist addition and for at least 2 min after agonist addition (enough time for the fluorescence response to reach and then decline from the absolute maximum, agonist-induced signal attained). For each well, final relative fluorescence units (RFUs) are calculated as the difference between the maximum fluorescence signal obtained in the experiment after agonist addition and the signal level seen at baseline before agonist, but after antagonist, addition (the absolute minimum level of fluorescence signal observed in the 10 seconds prior to agonist addition). […] Data are fit to an ideal curve utilizing the 4-parameter sigmoid curve-fit function in GraphPad Prism software (version 4, GraphPad Software, Inc., San Diego, Calif., USA) from which an EC50 value is obtained. […] For each antagonist, at least three concentrations are tested. Dose Ratio values are then used to make a standard Schild plot—log [antagonist concentration] plotted against log [DR−1], see Kenakin reference above for theoretical background and method. A linear regression curve-fit is then performed on these plotted points. […] If these conditions are not met, then the antagonist is rerun in a pA2 assay using different antagonist concentrations until the above conditions are met.

T1 sequence (Q8NER1 whole entry): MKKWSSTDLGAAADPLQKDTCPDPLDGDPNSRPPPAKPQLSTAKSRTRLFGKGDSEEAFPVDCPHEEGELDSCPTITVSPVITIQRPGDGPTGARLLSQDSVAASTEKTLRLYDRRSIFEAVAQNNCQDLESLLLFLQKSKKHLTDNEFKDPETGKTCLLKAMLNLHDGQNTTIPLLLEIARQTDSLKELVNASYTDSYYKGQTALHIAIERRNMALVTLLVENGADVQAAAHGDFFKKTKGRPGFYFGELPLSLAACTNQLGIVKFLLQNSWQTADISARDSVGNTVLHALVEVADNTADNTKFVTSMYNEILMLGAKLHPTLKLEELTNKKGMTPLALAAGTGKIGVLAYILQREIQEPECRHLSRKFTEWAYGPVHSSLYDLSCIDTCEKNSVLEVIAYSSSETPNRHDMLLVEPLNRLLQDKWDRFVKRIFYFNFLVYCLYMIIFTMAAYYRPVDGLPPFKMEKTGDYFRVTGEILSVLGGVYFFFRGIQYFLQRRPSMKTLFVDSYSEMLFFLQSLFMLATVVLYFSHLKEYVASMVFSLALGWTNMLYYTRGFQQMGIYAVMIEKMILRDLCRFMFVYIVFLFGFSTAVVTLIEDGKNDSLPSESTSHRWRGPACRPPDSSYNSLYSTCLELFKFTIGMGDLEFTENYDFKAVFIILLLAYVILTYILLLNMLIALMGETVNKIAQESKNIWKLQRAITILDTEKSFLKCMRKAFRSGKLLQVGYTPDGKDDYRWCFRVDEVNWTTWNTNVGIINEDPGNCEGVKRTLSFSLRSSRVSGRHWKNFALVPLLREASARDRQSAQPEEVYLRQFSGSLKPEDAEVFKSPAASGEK

For the compound `CC(NC(=O)C1CN(C)c2cc(C(F)(F)F)ccc2O1)c1ccc2[nH]ncc2c1` (mixture of isomers) [Compound 9, 4-Methyl-6-trifluoromethyl-3,4-dihydro-2H-benzo[1,4]oxazine-2-carboxylic acid [1-(1H-indazol-5-yl)ethyl]amide], the IC50 amounted to 42 nM at hVR1 [1] and 117 nM at hVR1 [2]. The compound also had a Kb at hVR1 [3] of 34.7 nM.
On the same counts, the results for `CC(NC(=O)[C@H]1COc2cc(C(C)(C)C)ccc2O1)c1ccc2[nH]ncc2c1` (single isomer, unassigned) [Compound 7] are 29 nM, 226 nM and 16.1 nM.
Take `CC(C)(c1ccc2c(n1)CC[C@@H](C(=O)Nc1cnc3c(c1)COCC3)C2)C(F)(F)F` (single isomer, unassigned) [Compound 18]: the IC50 at hVR1 [1] came out at 6 nM; at hVR1 [2], 18 nM. In addition, the Kb at hVR1 [3] was 32 nM.
On the same counts, the results for `CC(C)(c1ccc2c(n1)CC[C@H](C(=O)Nc1cnc3c(c1)COCC3)C2)C(F)(F)F` (single isomer, unassigned) [Compound 19] are 9 nM, 67 nM and 17 nM.
In the same order, the values of `C[C@@H](NC(=O)[C@@H]1CCc2nc(C(C)(C)C(F)(F)F)ccc2C1)c1ccc2[nH]ncc2c1` [Compound 11, (R)-2-(2,2,2-Trifluoro-1,1-dimethyl-ethyl)-5,6,7,8-tetrahydro-quinoline-6-carboxylic acid [(R)-1-(1H-indazol-5-yl)-ethyl]-amide] are 9 nM, 23 nM and 1.79 nM.
With `C[C@@H](NC(=O)[C@H]1CCc2nc(C(C)(C)C(F)(F)F)ccc2C1)c1ccc2[nH]ncc2c1` [Compound 12, (S)-2-(2,2,2-Trifluoro-1,1-dimethyl-ethyl)-5,6,7,8-tetrahydro-quinoline-6-carboxylic acid [(R)-1-(1H-indazol-5-yl)-ethyl]-amide], the IC50 at hVR1 [1] worked out at 2 nM; at hVR1 [2], 6 nM. Besides, the Kb on hVR1 [3] is 0.208 nM.
In the same order, the values of `CC(C)(c1ccc2c(n1)CC[C@@H](C(=O)Nc1cnc3sc(CO)nc3c1)C2)C(F)(F)F` [Compound 15, (R)-2-(2,2,2-Trifluoro-1,1-dimethyl-ethyl)-5,6,7,8-tetrahydro-quinoline-6-carboxylic acid (2-hydroxymethyl-thiazolo[5,4-b]pyridin-6-yl)-amide] are 19 nM, 18 nM and 5.05 nM.
For `CC(C)(c1ccc2c(n1)CC[C@@H](C(=O)Nc1cnc3ccccc3c1)C2)C(F)(F)F` [Compound 21, (R)-2-(2,2,2-Trifluoro-1,1-dimethyl-ethyl)-5,6,7,8-tetrahydro-quinoline-6-carboxylic acid quinolin-3-ylamide], the IC50 amounted to 33 nM at hVR1 [1] and 40 nM on hVR1 [2]. Also, the Kb on hVR1 [3] was 22.9 nM.
In the same order, the values of `CC(=O)N1CCc2ccc(NC(=O)[C@@H]3CCc4nc(C(C)(C)C(F)(F)F)ccc4C3)cc21` [Compound 23, (R)-2-(2,2,2-Trifluoro-1,1-dimethyl-ethyl)-5,6,7,8-tetrahydro-quinoline-6-carboxylic acid (1-acetyl-2,3-dihydro-1H-indol-6-yl)-amide] are 2 nM, 9 nM and 5.91 nM.
